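Protocol summary: plate cells (96-well), add compound at 5 concentrations, incubate 48 h, interpolate endpoints linearly. GI50: concentration for 50% inhibition of growth. The concentration for full growth arrest is given as TGI.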

Holding throughout (experiment): NCI tumour cell line growth inhibition, 48 h
In assay [1] the test system is SR leukemia.
In assay [2] the test system is HCT-15 colon.
Assay [3] has as its system NCI-H226 lung.
Assay [4] has as its system NCI-H460 lung.
For assay [5], the system named is OVCAR-4 ovarian.
The subject of assay [6] is SF-539 CNS.
The subject of assay [7] is SF-295 CNS.
The subject of assay [8] is ACHN renal.
Assay [9] deals with UO-31 renal.
The test system of assay [10] is NCI-H23 lung.

As to `Cc1ccc(S(=O)(=O)N/N=C/C(=C/c2ccc(Cl)cc2)CC(/C=N/NS(=O)(=O)c2ccc(C)cc2)=C\c2ccc(Cl)cc2)cc1`, the TGI in assay [1] was 24.5 µM; in assay [2], 12.3 µM; in assay [3], 38 µM; in assay [4], 30.3 µM; in assay [5] it was 24.8 µM; in assay [6], 34.2 µM. The TGI in assay [7] came out at 55 µM; in assay [8], 19.1 µM; in [9], 18.7 µM; in assay [10], 26.8 µM.

As to `O=C(O)/C=N\Nc1nc2ccccc2[nH]1`, the TGI in assay [1], in assay [2], in [3], in [4], in [5] and in [6] was greater than 100 µM throughout. The TGI in assay [7], in [8], in [9] and in assay [10] was greater than 100 µM each time.

Take `CCC(C)(C)/C(CC(O)(C(F)(F)F)C(F)(F)F)=N\O`: the TGI in assay [1], in assay [2], in assay [3], in assay [4], in assay [5] and in [6] was greater than 100 µM throughout. The TGI in [7], in [8], in assay [9] and in [10] was greater than 100 µM in each case.

For the compound `COc1ccc(C2CC(c3cccc(Nc4ccncc4)c3)=NN2c2cc(Cl)cc(Cl)c2)cc1` (stereo unspecified), the GI50 was 1.53 µM in assay [1]; 1.7 µM in assay [2]; 10.7 µM in assay [3]; 1.86 µM in assay [4]; 1.67 µM in assay [5]; 1.68 µM in [6]. The GI50 in [7] is 1.73 µM; in assay [8], 1.7 µM; in assay [9], 1.36 µM; in assay [10] it was 1.79 µM. The TGI in [1] is 4.34 µM; in [2], 3.26 µM; in [3] it was 30.7 µM; in [4], 3.45 µM; in [5], 3.12 µM; in assay [6] it was 3.14 µM. Further, the TGI in [7] stood at 3.14 µM; in assay [8], 3.08 µM; in assay [9], 2.74 µM; in assay [10], 3.44 µM.

`c1ccc2sc(C3(N4CCCC4)CCCCCC3)cc2c1`: the TGI in assay [1] was 44.1 µM; in assay [2], 56.5 µM; in assay [3], 40.3 µM; in assay [4], 30.1 µM; in assay [5], 31.8 µM; in assay [6], 41.2 µM. The TGI is 30.4 µM in assay [7], 60.7 µM in assay [8], 26 µM in assay [9] and 40.6 µM in assay [10].

Turning to `CC(=O)c1c2c(cc3c1CC1(Cc4ccccc4C1=O)C3)CCC2` (stereo unspecified), the TGI in [1] is 47.9 µM; in assay [2], greater than 100 µM; in [3], 72.4 µM; in assay [4] it was greater than 100 µM; in assay [5] it was greater than 100 µM; in assay [6] it was greater than 100 µM. For the same compound, the TGI in assay [7], in [8], in assay [9] and in [10] was greater than 100 µM in each case.

For `O=[N+]([O-])c1ccc(C=C2C(Cl)=C(Cl)C(Cl)=C2Cl)cc1`, the GI50 in assay [1] was 2.04 µM; in [2] it was 3.17 µM; in [3], 4.31 µM; in [4] it was 3.62 µM; in assay [5], 2.42 µM; in assay [6], 2.54 µM. Besides, the GI50 is 3.47 µM in assay [7], 1.47 µM in assay [9] and 2.05 µM in assay [10]. The TGI in assay [1] was 7.75 µM; in assay [2] it was greater than 100 µM; in [3] it was 23 µM; in [4], greater than 100 µM; in assay [5], 6.1 µM; in [6], 7.09 µM. Moreover, the TGI in assay [7] worked out at 76.6 µM; in assay [9], 3.16 µM; in assay [10] it was 5.16 µM.

For `CC(C)(C)C(=O)OCC1CCC[N+]2(C)CCCCC12` (stereo unspecified), the TGI in assay [1], in [2], in assay [3], in [4], in assay [5] and in assay [6] was greater than 100 µM throughout. In addition, the TGI in [7], in assay [8], in [9] and in assay [10] was greater than 100 µM in each case.

`COc1cc(C2c3cc4c(cc3OC(N3CCCC3)C2C)OCO4)cc(OC)c1O` (stereo unspecified): the TGI in assay [1] is greater than 100 µM; in assay [2], greater than 100 µM; in assay [3], 80.9 µM; in [4] it was greater than 100 µM; in assay [5], greater than 100 µM; in assay [6], 41.2 µM. Moreover, the TGI in [7] is 22.3 µM; in assay [8] it was greater than 100 µM; in [9] it was greater than 100 µM; in assay [10], greater than 82.1 µM.

Regarding `CCOC(=O)C1(Cc2ccc3c(c2)CCC3)Cc2cc3c(cc2C1)CCC3`, the TGI in [1] is greater than 100 µM; in assay [2], greater than 100 µM; in assay [3], 81.9 µM; in assay [4] it was 93.5 µM; in assay [5], 87.9 µM; in [6] it was 99.4 µM. Also, the TGI in assay [7] was 70.8 µM; in assay [8], greater than 100 µM; in assay [9] it was greater than 100 µM; in assay [10], greater than 100 µM.

Regarding `COc1cc(-c2cc(=O)c3c(OC)c(OC)c(OC)c(OC)c3o2)c(OC)c(OC)c1OC`, the TGI in assay [1], in assay [2], in assay [3], in assay [4], in assay [5] and in [6] was greater than 100 µM in each case. The figures for the TGI in [7], in assay [8] and in [9] were greater than 100 µM, greater than 100 µM and 88.6 µM, respectively.

`COc1cc(/C=C2\CCC(C)C3C2=NN(C(C)=O)C3c2cc(OC)c(OC)c(OC)c2)cc(OC)c1OC` (stereo unspecified): the TGI in [1], in [2], in [3], in [4], in [5] and in [6] was greater than 100 µM throughout. Besides, the TGI in assay [7], in assay [8] and in assay [10] was greater than 100 µM throughout.

The record behind these values is PubChem BioAssay (NCI).
